Measured values: paper PMC9224512, “New Insights into the Determinants of Specificity in Human Type I Arginase: Generation of a Mutant That Is Only Active with Agmatine as Substrate” (International Journal of Molecular Sciences, 2022)
Positions count from the first letter of the chain named. pKi: −log10 of the molar value.

Tests used:
Format in all cases: biochemical
[1] = biological target: T1, human arginase type I N130D (Homo sapiens, UniProt P05089, N130D); assay: Kinetic and inhibition studies, N130D mutant
T1 sequence (P05089 1-322 N130D): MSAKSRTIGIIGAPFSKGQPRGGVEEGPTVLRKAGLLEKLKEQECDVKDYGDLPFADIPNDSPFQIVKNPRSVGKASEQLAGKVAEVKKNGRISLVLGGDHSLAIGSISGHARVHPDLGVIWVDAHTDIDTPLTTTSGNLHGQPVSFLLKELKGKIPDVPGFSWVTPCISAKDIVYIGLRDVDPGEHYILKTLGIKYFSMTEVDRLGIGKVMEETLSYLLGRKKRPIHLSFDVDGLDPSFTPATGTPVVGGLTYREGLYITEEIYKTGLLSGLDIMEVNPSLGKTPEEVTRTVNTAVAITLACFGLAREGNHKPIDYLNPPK
Method: (§1) Bacterial cultures were grown with shaking at 37 °C in Luria Broth media, in the presence of ampicillin (100 μg/mL). The wild-type and mutant human liver arginase cDNAs were directionally cloned into the pBluescript II KS(+) expression vector and then expressed in E. coli JM109, following induction with 1 mM isopropyl β-D-thiogalactopyranoside. The bacterial cells were disrupted by sonication on ice (5 × 30 s pulses), centrifuged for 20 min at 12,000× g, and the obtained supernatant was precipitated with ammonium sulfate (60% saturation). The pellet, collected by centrifugation at 12,000× g for 10 min, was re-suspended in buffer 5 mM Tris–HCl (pH 7.5) containing 2 mM MnCl2 and dialyzed for 6 h at 4 °C against the same buffer. After incubation with 5 mM MnCl2 for 10 min at 60 °C, the enzyme variants were purified as previously described. The purity of the enzymes was evaluated by SDS–PAGE stained by Coomassie blue and immunodetection using an anti- rat arginase I antibody.
(§2) The single, double, triple, and chimera variants of human arginase type I were obtained by PCR, using the QuickChange site-directed mutagenesis kit (Stratagene, La Jolla, CA, USA); the plasmid pBluescript II KS(+) containing the human liver arginase cDNA was used as template. To obtain the chimeric species of human arginase type I, serial mutations were made in each loop to be modified, using as template DNA the wild-type arginase gene or the previous done mutation, subcloned in the plasmid pBluescript II KS (+). Specifically, the residues present in the arginase structure were replaced by those corresponding to the agmatinase sequence of E. coli.
(§3) All assays were initiated by adding the enzyme to a previously equilibrated buffer with the substrate in solution (the concentrations of used substrates were between 0.2–3 fold the Km). Urea was determined by a colorimetric method with α-isonitrosopropiophenone. The protein concentrations were determined by the Bradford’s method, with bovine serum albumin as standard. Initial velocity and enzymatic inhibition experiments were performed in duplicate and repeated three times. The inhibitory patterns were initially determined by double reciprocal plots and re-plots of intercepts and slopes versus inhibitor concentrations. […] Velocities are expressed as μmol of urea/10 min.

[2] = biological target: T2, human arginase type I S137C (Homo sapiens, UniProt P05089, S137C); assay: Kinetic and inhibition studies, S137C mutant
T2 sequence (P05089 1-322 S137C): T1 sequence (P05089 1-322 N130D) with D130N, S137C
Method: as §1, §2, §3

[3] = biological target: T3, human arginase type I N130D-N139D (Homo sapiens, UniProt P05089, N130D/N139D); assay: Kinetic and inhibition studies, N130D-N139D mutant
T3 sequence (P05089 1-322 N130D/N139D): T1 sequence (P05089 1-322 N130D) with N139D
Method: as §1, §2
(§4) All assays were initiated by adding the enzyme to a previously equilibrated buffer with the substrate in solution (the concentrations of used substrates were between 0.2–3 fold the Km). Urea was determined by a colorimetric method with α-isonitrosopropiophenone. The protein concentrations were determined by the Bradford’s method, with bovine serum albumin as standard. […]

[4] = biological target: T4, human arginase type I S137C-N139D (Homo sapiens, UniProt P05089, N139D/S137C); assay: Kinetic and inhibition studies, S137C-N139D mutant
T4 construct: made in house; host or cells: E. coli JM109
T4 sequence (P05089 1-322 S137C/N139D): T1 sequence (P05089 1-322 N130D) with D130N, S137C, N139D
Method: as §1, §2, §4

[5] = biological target: T5, human arginase type I N130D-S137C-N139D (Homo sapiens, UniProt P05089, N130D/N139D/S137C); assay: Kinetic and inhibition studies, triple mutant
T5 sequence (P05089 1-322 N130D/S137C/N139D): T1 sequence (P05089 1-322 N130D) with S137C, N139D
Method: as §1, §2, §4

[6] = substrate = labelled compound, pH 9.5, 2 mM Mn2+

Compound	Km [1, 6] [mM]	kcat [1, 6] [s⁻¹]	catalytic activity relative to wild type ([1]; substrate arginine) [%]	kcat/Km ratio, times less than wild-type enzyme ([1]; substrate arginine) [times]	kcat ([2]; substrate = labelled compound) [s⁻¹]	Km [2, 6] [mM]	kcat ([3]; substrate = labelled compound) [s⁻¹]	Km [3, 6] [mM]	kcat ([4]; substrate = labelled compound) [s⁻¹]	Km [4, 6] [mM]	kcat ([5]; substrate = labelled compound) [s⁻¹]	Km [5, 6] [mM]	pKi ([1]; read-out: Ki^orn)	pKi ([2]; read-out: Ki^orn)	pKi ([3]; read-out: Ki^orn)	pKi ([4]; read-out: Ki^orn)	pKi ([5]; read-out: Ki^orn)
N=C(N)NCCC[C@H](N)C(=O)O [Arginine, L-arginine]	13.3	33	17	50	75	3.2	33	6.1	83	10.8	4	6.9					
NCCC[C@H](N)C(=O)O [Ornithine, L-ornithine]													2.11	2.12	2.19	2.08	2.27
